In the assay the test system is Guinea pig tracheal smooth muscle. The assay is described as follows: Electrical field stimulated guinea pig tracheal smooth muscle contraction (ex vivo). Particulars: pooled from three experiments; 95% CI 0.78-0.94; read-out: IC50, inhibition of EFS-induced tracheal smooth muscle contraction. The source says: Animals: Guinea pig, Dunkin Hartley, male, Full barrier-bred and certified free of specific micro-organisms on receipt 525-609 g on the experimental day, Harlan UK Ltd. Guinea pigs were housed in a group of 4 in solid-bottomed cages with Gold Flake bedding in a controlled environment (airflow, temperature and humidity). Food (FD1, Special Diet Services) and water were provided ad libitum.
On each experimental day, a guinea pig was killed by exposure to a rising concentration of CO2 and the trachea removed. The trachea was cleaned of extraneous tissue and cut open longitudinally in a line opposite the muscle, opened out and cut into strips 2-3 cartilage rings wide. […] Tissues were washed with Kreb's buffer and stimulated using the previously determined sub-maximal voltage for 1 hour to establish a stable baseline contraction prior to assessment of compound activity. *“Novel and Versatile Superfusion System. […]
A cumulative dose response curve (DRC) to each test substance was then performed and changes in smooth muscle contraction measured. The effect of each test substance in each experiment was expressed as a percentage inhibition of the baseline contraction, normalized to the relevant vehicle controls. […] The data from all three experiments was pooled, the DRC plotted, and the test substance potency and efficacy determined.

One may read the IC50 as the point on the concentration scale where inhibition reaches its midpoint. As for `CC(C)[N+]1(C)[C@@H]2CC[C@H]1CC(OC(=O)C(CO)c1ccccc1)C2` (stereo partly shown) [Ipratropium bromide], the IC50 was 0.86 nM.

The values above are taken from patent US9309235B2, “SGC stimulators” (IRONWOOD PHARMACEUTICALS, INC., priority 2012, dated 2016).
